Source: publication doi:10.1101/2025.07.05.663305v1, “Structure of Photosystem I with SOD reveals coupling between energy conversion and oxidative stress protection” (biorxiv, 2025)

Target: T1, FCPb (Chromera velia, UniProt A0A0G4ID45)
T1 construct: gene Cvel_13255; native PSI-SOD-FCPI supercomplex purified from cells; contacts PsaD, PsaL, PsaA2 and SOD1
T1 sequence (A0A0G4ID45 1-293): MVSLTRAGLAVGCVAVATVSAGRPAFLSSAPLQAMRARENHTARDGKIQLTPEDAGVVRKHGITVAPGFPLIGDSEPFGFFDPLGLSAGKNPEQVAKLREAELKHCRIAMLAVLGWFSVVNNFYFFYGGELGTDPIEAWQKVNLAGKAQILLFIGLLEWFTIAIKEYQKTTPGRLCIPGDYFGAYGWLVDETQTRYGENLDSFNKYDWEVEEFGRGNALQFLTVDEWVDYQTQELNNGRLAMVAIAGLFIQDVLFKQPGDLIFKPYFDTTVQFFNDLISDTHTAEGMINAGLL
Experiment: cryo-EM structure
Assay type: binding
Settings: four sites 301, 302, 303, 305

In the case of `CC(/C=C/C=C(C)/C=C/[C@@]12O[C@]1(C)C[C@@H](O)CC2(C)C)=C\C=C\C=C(C)\C=C\C=C(C)\C=C\[C@@]12O[C@]1(C)C[C@@H](O)CC2(C)C` [violaxanthin], the cryo-EM structure is reported as “FCPb binds ten Chls a and four violaxanthins”.
